This is an account of results in US10125134B2 (Mirati Therapeutics, Inc., priority 2016, dated 2018).

One assay deals with KRas G12C (Homo sapiens, UniProt P01116, C118S/C51S/C80L/G12C). As to the kind of experiment: KRas G12C Modification Assay (LCMS detection of covalent adduct). The assay is classed as binding. To be noted: normalized percent of control; tested at 5 μM concentration for 3 hours. A digest of the protocol: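 Covalent modification was read by reverse-phase LC/MS of intact protein after compound exposure, each reaction stopped at its time point with 25 mM acetic acid. Unmodified-protein signal, taken as percent of total, was normalised to untreated protein and reported as POC.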

The subject of assay [1] is NCI-H358 cells (express KRas G12C), Phospho-ERK. The assay can be described thus: Cellular inhibition of KRas G12C: Phospho-ERK in NCI-H358 cells. The assay is classed as cell-based. To be noted: pERK(Thr202/Tyr204) normalized with GAPDH, NCI-H358 cells, 3 hours, read-out: IC50. A digest of the protocol:
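IC50 derived by 4-parameter fit of GAPDH-normalized pERK(Thr202/Tyr204) signal, as percent of DMSO control. Signal came from in-cell immunodetection with infrared secondaries after 3 h compound exposure of KRas G12C NCI-H358 cells at 0.5% DMSO.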

Molecules are shown by their SMILES. Read-outs that look alike come from different tables or passages of the source.

Broadly, the IC50 is the point on the concentration scale where inhibition reaches its midpoint. `C=CC(=O)N1CCN(c2nc(OCCN3CCCC(F)(F)C3)nc3c2CCN(c2cccc4cccc(Cl)c24)C3)C[C@@H]1CC#N` [Example 453, 2-[(2S)-4-[7-(8-chloro-1-naphthyl)-2-[2-(3,3-difluoro-1-piperidyl)ethoxy]-6,8-dihydro-5H-pyrido[3,4-d]pyrimidin-4-yl]-1-prop-2-enoyl-piperazin-2-yl]acetonitrile]: the POC result at KRas G12C is on record as “C (“C”>50% POC)”. Moreover, the half-maximal inhibitory concentration (IC50) in assay [1] (Homo sapiens, NCI-H358, 3 h) lay in the range of 0.0001 to 1 µM.

As for `C=CC(=O)N1CCN(c2nc(OC[C@@H]3CCCN3C)nc3c2CCN(c2c(C)c(C)cc4[nH]ccc24)C3)CC1` [Example 454, 1-[4-[7-(5,6-dimethyl-1H-indol-4-yl)-2-[[(2S)-1-methylpyrrolidin-2-yl]methoxy]-6,8-dihydro-5H-pyrido[3,4-d]pyrimidin-4-yl]piperazin-1-yl]prop-2-en-1-one], at KRas G12C, the POC result is “C (“C”>50% POC)”. Further, the IC50 in assay [1] (Homo sapiens, NCI-H358, 3 h) lay within 0.0001 to 1 µM.

For `CC#CC(=O)N1CCN(c2nc(OC[C@@H]3CCCN3C)nc3c2CCN(c2cccc4cccc(C)c24)C3)C[C@@H]1CC#N` [Example 455, 2-((S)-1-(but-2-ynoyl)-4-(7-(8-methylnaphthalen-1-yl)-2-(((S)-1-methylpyrrolidin-2-yl)methoxy)-5,6,7,8-tetrahydropyrido[3,4-d]pyrimidin-4-yl)piperazin-2-yl)acetonitrile], the POC result on KRas G12C is “C (“C”>50% POC)”. Moreover, the IC50 in assay [1] (Homo sapiens, NCI-H358, 3 h) was 0.0001 to 1 µM.

For the compound `Cc1cccc2cccc(N3CCc4c(nc(OC[C@@H]5CCCN5C)nc4N4CCN(C(=O)/C=C/CN(C)C)[C@@H](CC#N)C4)C3)c12` [Example 456, 2-((S)-1-((E)-4-(dimethylamino)but-2-enoyl)-4-(7-(8-methylnaphthalen-1-yl)-2-(((S)-1-methylpyrrolidin-2-yl)methoxy)-5,6,7,8-tetrahydropyrido[3,4-d]pyrimidin-4-yl)piperazin-2-yl)acetonitrile], at KRas G12C, the POC entry is recorded as “C (“C”>50% POC)”. Besides, the IC50 in assay [1] (Homo sapiens, NCI-H358, 3 h) lay within 0.0001 to 1 µM.

With `Cc1cccc2cccc(N3CCc4c(nc(OC[C@@H]5CCCN5C)nc4N4CCN(C(=O)/C=C/CN5CCOCC5)[C@@H](CC#N)C4)C3)c12` [Example 457, 2-[(2S)-4-[7-(8-methyl-1-naphthyl)-2-[[(2S)-1-methylpyrrolidin-2-yl]methoxy]-6,8-dihydro-5H-pyrido[3,4-d]pyrimidin-4-yl]-1-[(E)-4-morpholinobut-2-enoyl]piperazin-2-yl]acetonitrile], the POC entry at KRas G12C is “C (“C”>50% POC)”. In assay [1] (Homo sapiens, NCI-H358, 3 h), the IC50 lay within 0.0001 to 1 µM.

For the compound `C=CC(=O)N1CCN(c2nc(OC[C@@H]3CCCN3C)nc3c2CCN(c2cccc4cccc(C)c24)C3)C[C@H]1CC#N` [Example 458, 2-[(2R)-4-[7-(8-methyl-1-naphthyl)-2-[[(2S)-1-methylpyrrolidin-2-yl]methoxy]-6,8-dihydro-5H-pyrido[3,4-d]pyrimidin-4-yl]-1-prop-2-enoyl-piperazin-2-yl]acetonitrile], on KRas G12C, the POC result was “C (“C”>50% POC)”. Further, the IC50 in assay [1] (Homo sapiens, NCI-H358, 3 h) is 0.0001 to 1 µM.

As for `C=CC(=O)N1CCN(c2nc(OC[C@@H]3CCCN3C)nc3c2CCN(c2c(C)c(C)cc4[nH]ncc24)C3)C[C@@H]1CC#N` [Example 459, 2-[(2S)-4-[7-(5,6-dimethyl-1H-indazol-4-yl)-2-[[(25)-1-methylpyrrolidin-2-yl]methoxy]-6,8-dihydro-5H-pyrido[3,4-d]pyrimidin-4-yl]-1-prop-2-enoyl-piperazin-2-yl]acetonitrile], the POC entry on KRas G12C was “C (“C”>50% POC)”. The IC50 in assay [1] fell in the range of 0.0001 to 1 µM.

`Cc1cccc2cccc(N3CCc4c(nc(OCCC(=O)N(C)C)nc4N4CCN(C(=O)/C=C/CN(C)C)[C@@H](CC#N)C4)C3)c12` [Example 460, (S,E)-3-((4-(3-(cyanomethyl)-4-(4-(dimethylamino)but-2-enoyl)piperazin-1-yl)-7-(8-methylnaphthalen-1-yl)-5,6,7,8-tetrahydropyrido[3,4-d]pyrimidin-2-yl)oxy)-N,N-dimethylpropanamide]: at KRas G12C, the POC result is reported as “C (“C”>50% POC)”. Moreover, in assay [1] (Homo sapiens), the IC50 was in the range of 0.0001 to 1 µM.

In the case of `C=CC(=O)N1CCN(c2nc(OC[C@@H]3CCCN3C)nc3c2CCN(c2cccc4cccc(Br)c24)C3)C[C@@H]1CC#N` [Example 461, 2-((S)-1-acryloyl-4-(7-(8-bromonaphthalen-1-yl)-2-(((S)-1-methylpyrrolidin-2-yl)methoxy)-5,6,7,8-tetrahydropyrido[3,4-d]pyrimidin-4-yl)piperazin-2-yl)acetonitrile], on KRas G12C, the POC result is recorded as “C (“C”>50% POC)”. In addition, the IC50 in assay [1] (Homo sapiens, NCI-H358, 3 h) is 0.0001 to 1 µM.

For `C=CC(=O)N1CCN(c2nc(OC[C@@H]3CCCN3C)nc3c2CCN(c2cccc4ccccc24)C3)[C@@H](C#N)C1` [Example 462, (R)-4-acryloyl-1-(2-(((S)-1-methylpyrrolidin-2-yl)methoxy)-7-(naphthalen-1-yl)-5,6,7,8-tetrahydropyrido[3,4-d]pyrimidin-4-yl)piperazine-2-carbonitrile], the POC entry on KRas G12C is “C (“C”>50% POC)”. In assay [1] (Homo sapiens, NCI-H358, 3 h), the IC50 was more than 1 µM.
